Source: ChEMBL document CHEMBL1139205, “Newer tetracycline derivatives: synthesis, anti-HIV, antimycobacterial activities and inhibition of HIV-1 integrase” (Bioorg Med Chem Lett, 2007)
≈ marks a conversion by molar mass, not a printed value.

What was measured:
[1] = Cytotoxicity against CEM cells after 5 days by MTT method; type: cell-based; conditions: human, CCRF-CEM (CEM) cells
[2] = tested on: Mycobacterium tuberculosis; assay: Antimycobacterial activity against Mycobacterium tuberculosis by agar dilution method; type: functional
[3] = tested on: Human immunodeficiency virus 1; assay: Antiviral activity against HIV1 3B in CEM cells assessed as inhibition of viral-induced cytopathicity; type: functional, organism-based; conditions: Human immunodeficiency virus 1, 3B, CCRF-CEM
[4] = target: T1, Human immunodeficiency virus type 1 integrase (Human immunodeficiency virus 1, UniProt Q7ZJM1); assay: Inhibition of HIV1 recombinant integrase strand transfer activity
T1 sequence (Q7ZJM1 whole entry): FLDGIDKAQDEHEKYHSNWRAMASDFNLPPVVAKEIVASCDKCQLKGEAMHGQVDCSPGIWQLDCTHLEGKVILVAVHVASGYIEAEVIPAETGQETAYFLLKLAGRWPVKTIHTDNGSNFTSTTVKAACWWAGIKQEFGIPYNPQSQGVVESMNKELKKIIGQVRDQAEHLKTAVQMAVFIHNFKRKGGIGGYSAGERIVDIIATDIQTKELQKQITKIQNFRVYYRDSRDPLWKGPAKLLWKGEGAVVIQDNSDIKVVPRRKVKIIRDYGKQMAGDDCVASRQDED

[5] = target: T1, Human immunodeficiency virus type 1 integrase; assay: Inhibition of HIV1 recombinant integrase 3'-processing activity
[6] = Selectivity index, ratio of CC50 for CEM cells to EC50 for HIV1 3B; type: functional, CCRF-CEM

SMILES	CC50 at 120 h [1] [µM]	MIC [2] [µg/mL]	EC50 [3] [µM]	IC50 [4] [µM]	IC50 [5] [µM]	Ratio CC50/EC50 [6]
COc1c(N2CCN(CNC(=O)C3=C(O)[C@@H](N(C)C)[C@@H]4C[C@@H]5Cc6c(N(C)C)ccc(O)c6C(=O)C5=C(O)[C@]4(O)C3=O)C(C)C2)c(F)cc2c(=O)c(C(=O)O)cn(C3CC3)c12 (stereo not given in full)	126	0.2 (≈ 0.237 µM)	> 126	–	–	–
CN(C)c1ccc(O)c2c1C[C@H]1C[C@H]3[C@H](N(C)C)C(O)=C(C(N)=O)C(=O)[C@@]3(O)C(O)=C1C2=O [MINOCYCLINE]	52.1	> 6.25	> 52.1	–	–	–
CN(C)[C@@H]1C(O)=C(C(=O)NCN2CCN(c3cc4c(cc3F)c(=O)c(C(=O)O)cn4C3CC3)CC2)C(=O)[C@@]2(O)C(O)=C3C(=O)c4c(O)cccc4[C@@](C)(O)[C@H]3C[C@@H]12	141	0.39 (≈ 0.495 µM)	8.4	12	20	–
CCn1cc(C(=O)O)c(=O)c2cc(F)c(N3CCN(CNC(=O)C4=C(O)[C@@H](N(C)C)[C@@H]5C[C@H]6C(=C(O)[C@]5(O)C4=O)C(=O)c4c(O)cccc4[C@@]6(C)O)C(C)C3)c(F)c21 (stereo not given in full)	> 200	1.56 (≈ 1.93 µM)	7.58	44	65	–
CCn1cc(C(=O)O)c(=O)c2cc(F)c(N3CCN(CNC(=O)C4=C(O)[C@@H](N(C)C)[C@@H]5C[C@H]6C(=C(O)[C@]5(O)C4=O)C(=O)c4c(O)cccc4[C@@]6(C)O)CC3)cc21	131	0.78 (≈ 1.01 µM)	14.6	13	20	–
COc1c(N2CCN(CNC(=O)C3=C(O)[C@@H](N(C)C)[C@@H]4[C@@H](O)[C@H]5C(=C(O)[C@]4(O)C3=O)C(=O)c3c(O)cccc3[C@@]5(C)O)C(C)C2)c(F)cc2c(=O)c(C(=O)O)cn(C3CC3)c12 (stereo not given in full)	28.9	0.39 (≈ 0.46 µM)	> 28.9	13.5	28	–
CCn1cc(C(=O)O)c(=O)c2cc(F)c(N3CCNC(C)C3)c(F)c21 (stereo not given) [LOMEFLOXACIN]	–	6.25 (≈ 17.8 µM)	–	–	–	–
CN(C)c1ccc(O)c2c1C[C@H]1C[C@H]3[C@H](N(C)C)C(O)=C(C(=O)NCN4CCN(c5cc6c(cc5F)c(=O)c(C(=O)O)cn6C5CC5)CC4)C(=O)[C@@]3(O)C(O)=C1C2=O	120	0.78 (≈ 0.974 µM)	> 120	–	–	–
COc1c(N2CCN(CNC(=O)C3=C(O)[C@@H](N(C)C)[C@@H]4C[C@H]5C(=C(O)[C@]4(O)C3=O)C(=O)c3c(O)cccc3[C@@]5(C)O)C(C)C2)c(F)cc2c(=O)c(C(=O)O)cn(C3CC3)c12 (stereo not given in full)	140	0.2 (≈ 0.24 µM)	20.2	–	–	–
CCn1cc(C(=O)O)c(=O)c2cc(F)c(N3CCN(CNC(=O)C4=C(O)[C@@H](N(C)C)[C@@H]5C[C@@H]6Cc7c(N(C)C)ccc(O)c7C(=O)C6=C(O)[C@]5(O)C4=O)C(C)C3)c(F)c21 (stereo not given in full)	> 200	0.2 (≈ 0.244 µM)	5.2	18	20	>38
CCn1cc(C(=O)O)c(=O)c2cc(F)c(N3CCN(CNC(=O)C4=C(O)[C@@H](N(C)C)[C@@H]5C[C@@H]6Cc7c(N(C)C)ccc(O)c7C(=O)C6=C(O)[C@]5(O)C4=O)CC3)cc21	130	0.78 (≈ 0.989 µM)	> 130	–	–	–
CCn1cc(C(=O)O)c(=O)c2cc(F)c(N3CCN(CNC(=O)C4=C(O)[C@@H](N(C)C)[C@@H]5[C@@H](O)[C@H]6C(=C(O)[C@]5(O)C4=O)C(=O)c4c(O)cccc4[C@@]6(C)O)CC3)cc21	40	0.78 (≈ 0.985 µM)	12.2	12	21	–
CCn1cc(C(=O)O)c(=O)c2cc(F)c(N3CCN(CNC(=O)C4=C(O)[C@@H](N(C)C)[C@@H]5[C@@H](O)[C@H]6C(=C(O)[C@]5(O)C4=O)C(=O)c4c(O)cccc4[C@@]6(C)O)C(C)C3)c(F)c21 (stereo not given in full)	37.4	0.78 (≈ 0.947 µM)	15.1	–	–	–
CN(C)[C@@H]1C(O)=C(C(=O)NCN2CCN(c3cc4c(cc3F)c(=O)c(C(=O)O)cn4C3CC3)CC2)C(=O)[C@@]2(O)C(O)=C3C(=O)c4c(O)cccc4[C@@](C)(O)[C@H]3[C@H](O)[C@@H]12	17.7	0.39 (≈ 0.485 µM)	> 17.7	17	38	–
CN(C)[C@@H]1C(O)=C(C(=O)NCN2CCCC2)C(=O)[C@@]2(O)C(O)=C3C(=O)c4c(O)cccc4[C@@](C)(O)[C@H]3C[C@@H]12 [ROLITETRACYCLINE]	45.5	> 6.25	> 45.5	34	28	–
CN(C)[C@@H]1C(O)=C(C(N)=O)C(=O)[C@@]2(O)C(O)=C3C(=O)c4c(O)cccc4[C@@](C)(O)[C@H]3C[C@@H]12 [TETRACYCLINE]	40.5	> 6.25	> 40.5	188	204	–
